Like-named read-outs stand apart in the source and are kept apart here.

Data set [1] concerns Cytochrome P450 enzyme activity (ethoxyresorufin-O-deethylase activity). Put plainly: Dioxin-induced EROD (cytochrome P450 enzyme) activity inhibition in Hep G2 cells. It counts as cell-based. Conditions: Homo sapiens, read-out: Dioxin-induced EROD activity inhibition IC50. Here is the method:
(§1) Hep G2 cell that is a human hepatocarcinoma cell line was cultured in an incubator with a culture medium of Dulbecco's Modified Eagle Medium (DMEM) containing 10% of Fetal Bovine Serum (FBS) at 37° C. under an atmosphere of 5% of CO2.
1×104 of the cultured human hepatocarcinoma cells were placed into wells of a […]. After 24 hours, the cells were treated with a solution in which compounds represented by formulae 2 through 8 (obtained from Chembridge Corporation, San Diego, Calif.) were dissolved in dimethyl sulfoxide (DMSO) in a concentration of 0.1%. After one hour, the cells were treated with 3 nM of 2,3,7,8-tetrachlorodibenzo-p-dioxin (obtained from Cambridge Isotope Laboratory, Andover, Mass., U.S.A.). Cytochrome P450 enzyme activity was measured after 24 hours and the measured activity was evaluated by measuring ethoxyresorufin-O-deethylase activity (EROD, Ciolino et al, 1998).

For another data set, the target named is T1, dioxin receptor (Homo sapiens, UniProt P35869).
T1 construct: endogenous in cells; host or cells: hepatocarcinoma cells (cytoplasm fraction)
T1 sequence (P35869 11-848): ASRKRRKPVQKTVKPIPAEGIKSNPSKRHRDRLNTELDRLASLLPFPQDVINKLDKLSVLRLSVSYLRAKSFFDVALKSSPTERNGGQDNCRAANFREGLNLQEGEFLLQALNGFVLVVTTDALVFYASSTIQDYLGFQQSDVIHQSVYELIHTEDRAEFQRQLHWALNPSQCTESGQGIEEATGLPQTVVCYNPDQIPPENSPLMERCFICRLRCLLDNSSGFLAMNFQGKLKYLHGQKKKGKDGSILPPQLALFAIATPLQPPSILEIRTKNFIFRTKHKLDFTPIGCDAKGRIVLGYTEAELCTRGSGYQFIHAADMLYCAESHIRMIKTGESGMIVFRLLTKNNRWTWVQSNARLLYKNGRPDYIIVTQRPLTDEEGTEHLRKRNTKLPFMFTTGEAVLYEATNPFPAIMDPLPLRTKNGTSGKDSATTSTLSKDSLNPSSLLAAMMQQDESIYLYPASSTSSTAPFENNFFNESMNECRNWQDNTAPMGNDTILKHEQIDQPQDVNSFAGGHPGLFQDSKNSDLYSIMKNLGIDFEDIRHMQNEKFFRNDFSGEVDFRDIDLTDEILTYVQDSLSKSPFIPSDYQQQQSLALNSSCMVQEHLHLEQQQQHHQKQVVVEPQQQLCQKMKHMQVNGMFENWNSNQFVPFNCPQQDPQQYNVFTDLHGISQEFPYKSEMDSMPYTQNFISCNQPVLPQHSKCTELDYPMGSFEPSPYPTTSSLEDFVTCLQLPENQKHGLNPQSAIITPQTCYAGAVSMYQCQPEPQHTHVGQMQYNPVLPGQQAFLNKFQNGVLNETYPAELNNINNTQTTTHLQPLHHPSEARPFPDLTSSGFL
As to the kind of experiment: Inhibition of 3[H]-dioxin binding to its receptor in hepatocarcinoma cell cytoplasm (hydroxylapatite). Here is the method:
Compound 2 and 3[H]-dioxin were added to cytoplasm of hepatocarcinoma cells and analysis on binding of ligand-receptor was performed using hydroxylapatite. […] The results are illustrated in FIG. 2.
FIG. 2 illustrates the ability in percentage of Compound 2 to inhibit the binding of 3[H]-dioxin to its receptor.

Another data set relates to cytochrome P450 1A1. Put plainly: Western blot of dioxin-induced cytochrome P450 1A1 expression in hepatocarcinoma cells. The class given is cell-based, human. Here is the method: as §1
3×10^5 of the cultured human hepatocarcinoma cells were placed into tissue culture plates and cultured for 24 hours. After 24 hours, the cells were treated with a solution in which Compound 2 (obtained from Chembridge Corporation, San Diego, Calif.) was dissolved in dimethyl sulfoxide (DMSO) in a concentration of 0.1%. After one hour, the cells were treated with 3 nM of 2,3,7,8-tetrachlorodibenzo-p-dioxin (obtained from Cambridge Isotope Laboratory, Andover, Mass., U.S.A.). After 24 hours, the culture medium was removed by suction and the cells were washed with phosphate buffer solution. Then the cells were lysed and the protein was quantified.
In FIG. 1, flavone that has been widely reported to inhibit dioxin toxicity even though it increases dioxin toxicity at high concentrations was used as a positive control group. FIG. 1 illustrates Western blot analysis of cells treated with Compound 2 and flavone.
For orientation: Immunoblotting shows a protein as a band on a membrane.

On to `Cc1cc(N=Nc2ccccc2C)ccc1N` [Compound 7], for which the IC50 in data set [1] (HepG2, Hep G2 cells, 3 nM 2,3,7,8-tetrachlorodibenzo-p-dioxin, measured after 24 hours) is 0.215 ± 0.042 µM.
Consider `Cc1ccccc1N=Nc1ccc(NC(=O)C(C)C)c(C)c1` [Compound 5], for which the IC50 in data set [1] (HepG2, 24 h) was found to be 0.11 ± 0.007 µM.
Take `Cc1ccccc1N=Nc1ccc(NC(=O)c2ccnn2C)c(C)c1` [Compound 2]: the IC50 in data set [1] (HepG2, 24 h) came out at 0.03 ± 0.002 µM. On dioxin receptor (Compound 2 at 0.1, 1 and 10 μM, FIG. 2), the “binding ability of 3[H]-dioxin to its receptor with increasing concentration” value is “decreased as the concentration of Compound 2 increased”. Also, at dioxin receptor (cytoplasm of hepatocarcinoma cells, hydroxylapatite), the “binding of 3[H]-dioxin to its receptor” value is “inhibited the binding”. In addition, in the data set with cytochrome P450 1A1 (human hepatocarcinoma cells, 3 nM dioxin, 24 hours, Western blot), the “expression of cytochrome P450 1A1 that is increased by dioxin” value is given as “inhibited expression of cytochrome P450 1A1”. The “effect in decreasing the amount of expressed cytochrome P450 enzyme” value in the data set on cytochrome P450 1A1 (various concentrations, FIG. 1) is listed as “excellent effect”.
For `Cc1ccccc1N=Nc1ccc(NC(=O)c2ccc(F)cc2)c(C)c1` [Compound 4], the IC50 in data set [1] (HepG2, 24 h) turned out to be 0.105 ± 0.011 µM.
In the case of `Cc1ccccc1N=Nc1ccc(NC(=O)c2cccs2)c(C)c1` [Compound 6], the IC50 in data set [1] (HepG2, 24 h) came out at 0.153 ± 0.01 µM.
With `CC(=O)N(C(C)=O)c1ccc(N=Nc2ccccc2C)cc1C` [Compound 3], the IC50 in data set [1] (HepG2, 24 h) was found to be 0.075 ± 0.004 µM.
Still for that read-out and setting: the result for `CCCCNC(=O)Nc1ccc(N=Nc2ccccc2C)cc1C` [Compound 8] reads 0.45 ± 0.075 µM.

The IC50 is the point on the concentration scale where inhibition reaches its midpoint.

Source of the values: US20070032458A1, “Compound having activity for inhibiting dioxin toxicity, pharmaceutical composition comprising the compound and method for treating disease resulting from dioxin toxicity using the compound” (priority 2005, published 2007).
